Assay results published in ChEMBL document CHEMBL1201862, “PubChem BioAssay data set” (2004).
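Step 1: Grow cells in 96-well plates. Step 2: Expose to compound for 48 hours at 5 concentrations. Step 3: Interpolate endpoints linearly; if unreached, use highest concentration. Here, GI50 denotes the concentration required for 50% inhibition of growth.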 Calls of active or inactive are those of the source. No stated cut-off is given here; in the data, active = GI50 up to about 1.1 µM and inactive = higher.

Assays:
Assay in all cases: NCI-60 cell line screen, 48 h
SN12C = tested on: SN12C
HOP-18 = tested on: HOP-18
SF-539 = tested on: SF-539
COLO 205 = tested on: COLO 205
OVCAR-5 = tested on: OVCAR-5
HOP-92 = tested on: HOP-92
NCI-H226 = tested on: NCI-H226
786-0 = tested on: 786-0
DMS-114 = tested on: DMS-114
M19-MEL = tested on: M19-MEL
SR = tested on: SR
LOX IMVI = tested on: LOX IMVI
U-251 = tested on: U-251
SNB-75 = tested on: SNB-75
NCI-H23 = tested on: NCI-H23
TK-10 = tested on: TK-10
SF-268 = tested on: SF-268
KM12 = tested on: KM12
SNB-78 = tested on: SNB-78
HCT-116 = tested on: HCT-116
RXF 393 = tested on: RXF 393
OVCAR-8 = tested on: OVCAR-8
LXFL 529 = tested on: LXFL 529
Malme-3M = tested on: Malme-3M
DMS-273 = tested on: DMS-273
SK-MEL-28 = tested on: SK-MEL-28
CAKI-1 = tested on: CAKI-1
UO-31 = tested on: UO-31
SK-MEL-5 = tested on: SK-MEL-5
NCI-H522 = tested on: NCI-H522
M14 = tested on: M14
SF-295 = tested on: SF-295
SW-620 = tested on: SW-620
SK-MEL-2 = tested on: SK-MEL-2
HL-60 = tested on: HL-60
HT-29 = tested on: HT-29
KM-20L2 = tested on: KM-20L2
OVCAR-4 = tested on: OVCAR-4
SNB-19 = tested on: SNB-19
EKVX = tested on: EKVX
A549 = tested on: A549
UACC-257 = tested on: UACC-257
NCI-H460 = tested on: NCI-H460
DLD-1 = tested on: DLD-1
HOP-62 = tested on: HOP-62
HCC 2998 = tested on: HCC 2998
IGROV-1 = tested on: IGROV-1
UACC-62 = tested on: UACC-62
MOLT-4 = tested on: MOLT-4
CCRF-CEM = tested on: CCRF-CEM
RPMI-8226 = tested on: RPMI-8226
SK-OV-3 = tested on: SK-OV-3
OVCAR-3 = tested on: OVCAR-3
HCT-15 = tested on: HCT-15
ACHN = tested on: ACHN
K562 = tested on: K562
A498 = tested on: A498

N=C(c1ccccc1)N(O)C1CCCCC1
GI50 (SN12C): > 100 µM (inactive) | GI50 (HOP-18): > 100 µM (inactive) | GI50 (SF-539): > 100 µM (inactive) | GI50 (COLO 205): > 100 µM (inactive) | GI50 (OVCAR-5): > 100 µM (inactive) | GI50 (HOP-92): > 100 µM (inactive) | GI50 (NCI-H226): > 100 µM (inactive) | GI50 (786-0): > 100 µM (inactive) | GI50 (DMS-114): > 100 µM (inactive) | GI50 (M19-MEL): > 100 µM (inactive) | GI50 (SR): > 100 µM (inactive) | GI50 (LOX IMVI): > 100 µM (inactive) | GI50 (U-251): > 100 µM (inactive) | GI50 (SNB-75): 81.3 µM (inactive) | GI50 (NCI-H23): > 100 µM (inactive) | GI50 (TK-10): > 100 µM (inactive) | GI50 (SF-268): > 100 µM (inactive) | GI50 (KM12): > 100 µM (inactive) | GI50 (SNB-78): > 100 µM (inactive) | GI50 (HCT-116): > 100 µM (inactive) | GI50 (RXF 393): > 100 µM (inactive) | GI50 (OVCAR-8): > 100 µM (inactive) | GI50 (LXFL 529): > 100 µM (inactive) | GI50 (Malme-3M): 9.38 µM (inactive) | GI50 (DMS-273): > 100 µM (inactive) | GI50 (SK-MEL-28): > 100 µM (inactive) | GI50 (CAKI-1): > 100 µM (inactive) | GI50 (UO-31): > 100 µM (inactive) | GI50 (SK-MEL-5): > 100 µM (inactive) | GI50 (NCI-H522): > 100 µM (inactive) | GI50 (M14): > 100 µM (inactive) | GI50 (SF-295): > 100 µM (inactive) | GI50 (SW-620): > 100 µM (inactive) | GI50 (SK-MEL-2): > 100 µM (inactive) | GI50 (HL-60): > 100 µM (inactive) | GI50 (HT-29): > 100 µM (inactive) | GI50 (KM-20L2): > 100 µM (inactive) | GI50 (OVCAR-4): > 100 µM (inactive) | GI50 (SNB-19): > 100 µM (inactive) | GI50 (EKVX): > 100 µM (inactive) | GI50 (A549): > 100 µM (inactive) | GI50 (UACC-257): > 100 µM (inactive) | GI50 (NCI-H460): > 100 µM (inactive) | GI50 (DLD-1): > 100 µM (inactive) | GI50 (HOP-62): > 100 µM (inactive) | GI50 (HCC 2998): > 100 µM (inactive)

C/C=C1\Oc2ccc(OC)cc2S1(=O)=O
GI50 (SN12C): > 100 µM (inactive) | GI50 (HOP-18): > 100 µM (inactive) | GI50 (IGROV-1): > 100 µM (inactive) | GI50 (COLO 205): > 100 µM (inactive) | GI50 (OVCAR-5): > 100 µM (inactive) | GI50 (HOP-92): > 100 µM (inactive) | GI50 (NCI-H226): > 100 µM (inactive) | GI50 (786-0): > 100 µM (inactive) | GI50 (DMS-114): > 100 µM (inactive) | GI50 (M19-MEL): > 100 µM (inactive) | GI50 (UACC-62): > 100 µM (inactive) | GI50 (SR): > 100 µM (inactive) | GI50 (LOX IMVI): > 100 µM (inactive) | GI50 (U-251): > 100 µM (inactive) | GI50 (SNB-75): > 100 µM (inactive) | GI50 (NCI-H23): > 100 µM (inactive) | GI50 (MOLT-4): > 100 µM (inactive) | GI50 (TK-10): > 100 µM (inactive) | GI50 (CCRF-CEM): > 100 µM (inactive) | GI50 (SF-268): > 100 µM (inactive) | GI50 (RPMI-8226): > 100 µM (inactive) | GI50 (SK-OV-3): > 100 µM (inactive) | GI50 (KM12): > 100 µM (inactive) | GI50 (SNB-78): > 100 µM (inactive) | GI50 (HCT-116): > 100 µM (inactive) | GI50 (RXF 393): > 100 µM (inactive) | GI50 (OVCAR-8): > 100 µM (inactive) | GI50 (OVCAR-3): > 100 µM (inactive) | GI50 (LXFL 529): > 100 µM (inactive) | GI50 (Malme-3M): > 100 µM (inactive) | GI50 (HCT-15): > 100 µM | GI50 (DMS-273): > 100 µM (inactive) | GI50 (SK-MEL-28): > 100 µM (inactive) | GI50 (CAKI-1): > 100 µM (inactive) | GI50 (UO-31): > 100 µM (inactive) | GI50 (SK-MEL-5): > 100 µM (inactive) | GI50 (ACHN): > 100 µM (inactive) | GI50 (NCI-H522): > 100 µM (inactive) | GI50 (M14): > 100 µM (inactive) | GI50 (SF-295): > 100 µM (inactive) | GI50 (SW-620): > 100 µM (inactive) | GI50 (SK-MEL-2): > 100 µM (inactive) | GI50 (HL-60): > 100 µM (inactive) | GI50 (HT-29): > 100 µM (inactive) | GI50 (K562): > 100 µM (inactive) | GI50 (KM-20L2): > 100 µM (inactive) | GI50 (OVCAR-4): > 100 µM (inactive) | GI50 (SNB-19): > 100 µM (inactive) | GI50 (EKVX): > 100 µM (inactive) | GI50 (A549): > 100 µM (inactive) | GI50 (UACC-257): > 100 µM (inactive) | GI50 (A498): > 100 µM (inactive) | GI50 (NCI-H460): > 100 µM (inactive) | GI50 (DLD-1): > 100 µM (inactive) | GI50 (HOP-62): > 100 µM (inactive) | GI50 (HCC 2998): > 100 µM (inactive)
